Measurements reported in PMC10808720 (Frontiers in Pharmacology, 2024).
“Also recorded” adds a separate entry of the source. Where two headings read alike, the source gives them in different places.

Legend:
HAdV5-GFP = test: microbe, parasite or virus in culture; assay type: cell-based, human adenovirus (HAdV5); conditions: for Selectivity index: CC50 (A549) vs IC50 plaque assay (HAdV5)
Description: Compounds were tested using low MOI infections (0.06 vp/cell), initially at concentrations of 10 μM and subsequently in a dose-response assay ranging from 10 μM to 2.44 nM in a plaque assay. Briefly, 293β5 cells were seeded in 6-well plates at a density of 1 × 10^6 cells per well in duplicate for each condition. When the cells reached 80%–90% confluency, they were infected with HAdV5-GFP and rocked for 2 h at 37°C. After the incubation, the inoculum was removed and the cells were washed once with PBS. Cells were then carefully overlaid with equal parts of 4 mL/well 1.6% ([…]) Difco Agar Noble (Becton, Dickinson & Co., Sparks, MD, USA) and 2× Eagle’s Minimum Essential Medium (EMEM; BioWhittaker) supplemented with 2×penicillin/streptomycin, 2× L-glutamine, and 10% FBS. The mixture also contained the compounds in the concentration ranges described above. Following incubation for 7 days at 37°C, plates were scanned with a Typhoon FLA 9000 imager (GE Healthcare Life Sciences) and the formed plaques were quantified with ImageJ ([Schneider et al., 2012]). Plaque counting was performed to calculate the 50% inhibitory concentration (IC50) of each compound using the statistical software GraphPad Prism 6.

[1] = Cytotoxicity assay (AlamarBlue); assay type: cell-based, Human; conditions: human, A549 cells; for CC50: 48 h
Description: The cytotoxicity of the molecules was analyzed using the commercial kit AlamarBlue® (Invitrogen, Ref. DAL1025) according to the manufacturer’s instructions. Briefly, A549 cells were seeded at a density of 5 × 10^3 cells per well in 96-well plates, and decreasing serial dilutions of each molecule were diluted in 100 μL of DMEM starting at 200 μM. The cells were then incubated at 37°C for 48 h following the manufacturer’s protocol. The cytotoxic concentration 50% (CC50) value was obtained using the statistical software GraphPad Prism 6. The assay was performed in duplicate.

HCMV = test: Impact on HCMV replication (qPCR of HCMV DNA in HFF); assay type: cell-based, human cytomegalovirus; conditions: 2-fold IC50 (HAdV plaque assay), 72 h
Description: To test the anti-HCMV activity of these rotenolone-related compounds, human foreskin fibroblasts (HFF; ATCC, Manassas, VA) were seeded in a 24-well plate (8.3 × 10^4 cells/well), infected with HCMV (MOI 0.05 vp/cell), and incubated in complete DMEM in the presence of either 2-fold IC50 concentration of each compound obtained in the plaque assay against HAdV or the same volume of DMSO (positive control) in duplicate. The cells were incubated for 72 h at 37°C and 5% CO2 and HCMV DNA was purified from the cell lysate using E.Z.N.A Tissue DNA Kit (Omega Biotek, Norcross, GA, USA) following the manufacturer’s instructions. The qPCR primers, conditions, and protocols were the same as previously reported ([Mazzotta et al., 2020b]).

HAdV5-RFP = test: Anti-HAdV activity after knockdown of RPS14 by siRNA (RFP expression); assay type: cell-based, human adenovirus (HAdV5); conditions: RPS14 knockdown 293β5 cells; 10-fold IC50; 48 h
Description: An siRNA approach was used to evaluate the antiviral activity of these molecules in the absence of RPS14. According to the supplier’s protocol (Effectene Transfection Reagent, QIAGEN, Valencia, CA), 293β5 cells at 1.5 × 10^4 cells/well were seeded in a clear bottom 96-well microplate a day before transfection. On the day of transfection, 0.1 µg siRNA (MISSION esiRNA RPS14, SigmaAldrich) was diluted in EC buffer up to 30 µL/well and 0.8 µL/well of the enhancer was added and the mix was incubated for 5 min. Effectene transfection reagent was added and the mix was incubated for 10 min to allow transfection complex formation. The cell layers were washed with 1x PBS and transfection complexes were poured over them. After 6 h of incubation, the transfection complexes were removed and the cells were infected with HAdV5-RFP (MOI 2,000 viral particles/cell) in the presence of a 10-fold IC50 concentration of the compounds obtained in the plaque assay or the same volume of DMSO. Standard infection was induced in the presence of the same concentrations of the compounds (performed in triplicate), and a control without siRNA. Cells, viruses, and compounds were incubated for 48 h at 37°C and 5% CO2. Infection, as measured by HAdV5-mediated RFP expression, was analyzed using a Typhoon 9410 imager (GE Healthcare Life Sciences) and quantified using ImageQuantTL (GE Healthcare Life Sciences).

p53/MDM2 complex = assay type: cell-based, Human; conditions: HAdV5-infected A549 cells, 24 h; for concentration of p53/MDM2 complexes, high vs low cell density: 10-fold IC50
Description: A549 cells were seeded at a density of 1.5 × 10^5 cells per well in a 24-well plate at a high density and 3.75 × 10^4 cells per well at a low density. […] The culture medium was then aspirated and washed with 1X with cold PBS. Later, 200 μL RIPA Lysis Buffer (1% v/v NP-40, 20 mM Tris-HCL pH 7.4, 5 mM Sodium Pyrophosphate, 5 mM EDTA) with freshly added proteinase inhibitor cocktail (Thermo Fisher Scientific) was added to each well and swirled to distribute it evenly. Cells were then scraped and collected to incubate them for 30 min on ice and finally centrifuged at 13,000 × g for 5 min at 4°C. […] This assay was performed in triplicate.

wild-type HAdV5 [2] = test: HAdV DNA quantification by qPCR; assay type: cell-based, human adenovirus (HAdV5); conditions: 10-fold IC50; A549; 24 h; vs DMSO control
Description: For DNA quantification, A549 cells (1.5 × 10^5 cells/well in a 24-well plate) were incubated for 24 h in 500 μL of complete DMEM and were infected with wild-type HAdV5 (MOI 100 vp/cell) after observing more than 90% of confluency. Infected cells were incubated for 24 h at 37°C in 500 μL of either complete DMEM containing 10-fold IC50 concentration of the compounds obtained in the plaque assay or the same volume of DMSO (positive control). All samples were prepared in duplicate. After 24 h of incubation at 37°C, DNA was purified from the cell lysate with the E.Z.N.A.® Tissue DNA Kit (Omega Bio-tek, Norcross, GA) following the manufacturer’s instructions. PCR conditions, primers, and probes were as described by [Henke-Gendo et al. (2012)]. Human glyceraldehyde-3-phosphate dehydrogenase (GAPDH) gene was used as an internal control. GAPDH oligonucleotide sequences and conditions were as previously described by [Rivera et al. (2004)].
For quantification, gene fragments from hexons, and GAPDH were cloned into the pGEM-T Easy vector (Promega) and known concentrations of the template were used to generate a standard curve in parallel for each experiment, as previously reported ([Sanchez-Cespedes et al., 2016]). All assays were performed in thermal cycler LightCycler® 96 System (Roche).

wild-type HAdV5 [3] = test: HAdV yield reduction (burst) assay, TCID50 end-point dilution; assay type: cell-based, human adenovirus (HAdV5); conditions: 10-fold IC50 concentration, TCID50/ml compound vs. DMSO, A549 cells, 48 h, MOI 100 vp/cell
Description: A549 cells (1.5 × 10^5 cells/well in a 24-well plate) were incubated 24 h in 500 μL of complete DMEM and they were infected with wild-type HAdV5 (MOI 100 vp/cell) when more than 90% of confluency was observed. Infected cells were incubated for 48 h at 37°C in 500 μL of either complete DMEM containing 10-fold IC50 concentration of compounds obtained in the plaque assay or the same volume of DMSO (positive control). After 48 h, the cells were harvested and subjected to three rounds of freeze/thaw. Serial dilutions of the clarified lysates were titrated against A549 cells (3 × 10^4 cells/well in a 96-well plate) and TCID50 values were calculated using an end-point dilution method ([Reed and Muench, 1938]).

[4] = Human adenovirus sp., 168 h, read-out: IC50 plaque assay

CC1(C)C=Cc2c(ccc3c2O[C@@H]2COc4cc5c(cc4[C@@H]2C3=O)OCO5)O1 [Millettone]
Selectivity index (HAdV5-GFP): 23.8 | IC50 (HAdV5-GFP; [4]): 4.6 ± 0.54 µM | inhibition at 10 µM (HAdV5-GFP; Human adenovirus sp., read-out: inhibition of plaque formation): > 98% | CC50 [1]: 109 ± 2.2 µM | increase of HCMV replication compared with the control treated with DMSO (HCMV): more than 10 times | inhibition of HCMV replication (HCMV): did not inhibit

CC[C@H]1CN2CCc3cc(OC)c(OC)cc3[C@@H]2C[C@@H]1C[C@H]1NCCc2cc(OC)c(OC)cc21 [emetine, reference compound]
IC50 (HAdV5-GFP; Human adenovirus sp.): 0.085 ± 0.019 µM | CC50 [1]: 6.17 ± 0.04 µM | HAdV-mediated RFP expression when no RPS14 was available (HAdV5-RFP): reduced | concentration of p53/MDM2 complexes, high vs low cell density (p53/MDM2 complex): no differences based on the cell density; also recorded: non among emetine, rotenone, deguelin and tephrosin alter the concentrations | concentration of p53/MDM2 complexes (p53/MDM2 complex): dramatically reduced

COc1cc2c(cc1OC)[C@@H]1C(=O)c3ccc4c(c3O[C@@H]1CO2)C=CC(C)(C)O4 [Deguelin, (7aS,13aS)-13,13a-Dihydro-9,10-dimethoxy-3,3-dimethyl-3H-bis ([Mennechet et al., 2019])benzopyrano[3,4-b:6′,5′-e]pyran-7-(7aH)-one]
HAdV DNA copy number (de novo synthesis) (wild-type HAdV5 [2]): significant decrease | Selectivity index (HAdV5-GFP): 2,429.3 | IC50 (HAdV5-GFP; [4]): 0.04 ± 0.01 µM | CC50 [1]: 97.2 ± 0.1 µM | concentration of p53/MDM2 complexes, high vs low cell density (p53/MDM2 complex): non among emetine, rotenone, deguelin and tephrosin alter the concentrations | Virus Yield Fold-reduction (wild-type HAdV5 [3]): 2.7E+02 ± 19.4 fold | Virus Yield Fold-reduction (wild-type HAdV5 [3]; listed as deguelin): 270 fold | inhibition of HCMV replication (HCMV): 50%

COc1cc2c(cc1OC)[C@]1(O)C(=O)c3ccc4c(c3O[C@@H]1CO2)C=CC(C)(C)O4 [Tephrosin, hydroxydeguelin]
Selectivity index (HAdV5-GFP): 538.9 | IC50 (HAdV5-GFP; [4]): 0.07 ± 0.03 µM | CC50 at 48 h [1]: 37.7 ± 0.6 µM | concentration of p53/MDM2 complexes, high vs low cell density (p53/MDM2 complex): non among emetine, rotenone, deguelin and tephrosin alter the concentrations | Virus Yield Fold-reduction (wild-type HAdV5 [3]): 2.7E+03 ± 987.3 fold | inhibition of HCMV replication (HCMV): 83.4%
